Reference: US8822448B2, “Pyrazoloquinoline compound” (Astellas Pharma Inc., priority 2010, dated 2014)

How the values were obtained:
[1] = system: urethra relaxation response; test: Simultaneous measurement model for rat bladder contraction/urethra relaxation responses; type: in vivo; details: female SD rat, increase relative to the solvent administration group, read-out: Ratio with increased urethra relaxation time during voiding (vs vehicle) (%)
Protocol: Simultaneous measurement of the bladder contraction and urethra relaxation responses using a rat was carried out with a partial modification of a method in Wibberley et al. (Wibberley, A., et al., Br. J. Pharmacol., 136: pp. 399-414 (2002)). That is, a female Sprague-Dawley (SD) rat (Charles River Laboratories Japan, Inc.) was anesthetized with urethane, and the bladder was exposed by a midline incision in the lower abdomen. A double lumen cannula (a cannula having a dual structure by PE190 and PE50) from the bladder apex was inserted into the bladder, and the bladder apex and the cannula were fixed by sutures at a point where the tip reached the proximal urethra. While infusing physiological saline into the urethra through the outer cannula, the urethral inner pressure was measured by a pressure transducer through the inner cannula with a saline solution infused into the urethra through the outer cannula. On the other hand, a single cannula (PESO) was inserted into the bladder from the bladder apex and placed therein. The inner pressure of the bladder was measured through this cannula. After a postoperative stabilization period had passed, physiological saline was infused into the bladder through the cannula of the bladder apex to cause a bladder contraction reaction, and thus cause a urethra relaxation response accompanying the bladder contraction reflex. The test substance was administered intravenously or intraduodenally.

PDE9 = PDE9 (Homo sapiens (Human), UniProt O76083); test: PDE9-inhibiting activity (SPA enzyme assay); type: biochemical; details: IC50 values; cGMP 1 μM substrate, 30° C.; read-out: PDE9 inhibition
Protocol: The PDE9-inhibiting activity was measured by the following method. That is, to a buffer solution containing tris(hydroxymethyl)aminomethane-hydrochloric acid (40 mM, pH 8.0), magnesium chloride (5 mM), and 2-mercaptoethanol (4 mM) were added cGMP (1 μM) and ^3H-cGMP (0.33 μCi/ml) to give a substrate buffer solution. A test substance solution and an enzyme solution which had been adjusted to an optimal concentration were added thereto to perform a reaction at 30° C. The enzyme reaction was stopped by the addition of Scintillation Proximity Assay (SPA) Beads (Perkin Elmer, USA) containing 5 mM 3-isobutyl-1-methylxanthine (IBMX). For the enzyme activity, the amount of 5′-GMP, which is a reaction degradation product bound to SPA beads, was measured with a TopCount microplate reader (Hewlett Packard, USA). The inhibitory rate was calculated by taking the radioactivity of the control containing no test substance as (A), taking the radioactivity of the blank containing no enzyme as (B), and taking the radioactivity of the test substance as (C), and using the following equation.

Sequence of PDE9 (O76083 whole entry): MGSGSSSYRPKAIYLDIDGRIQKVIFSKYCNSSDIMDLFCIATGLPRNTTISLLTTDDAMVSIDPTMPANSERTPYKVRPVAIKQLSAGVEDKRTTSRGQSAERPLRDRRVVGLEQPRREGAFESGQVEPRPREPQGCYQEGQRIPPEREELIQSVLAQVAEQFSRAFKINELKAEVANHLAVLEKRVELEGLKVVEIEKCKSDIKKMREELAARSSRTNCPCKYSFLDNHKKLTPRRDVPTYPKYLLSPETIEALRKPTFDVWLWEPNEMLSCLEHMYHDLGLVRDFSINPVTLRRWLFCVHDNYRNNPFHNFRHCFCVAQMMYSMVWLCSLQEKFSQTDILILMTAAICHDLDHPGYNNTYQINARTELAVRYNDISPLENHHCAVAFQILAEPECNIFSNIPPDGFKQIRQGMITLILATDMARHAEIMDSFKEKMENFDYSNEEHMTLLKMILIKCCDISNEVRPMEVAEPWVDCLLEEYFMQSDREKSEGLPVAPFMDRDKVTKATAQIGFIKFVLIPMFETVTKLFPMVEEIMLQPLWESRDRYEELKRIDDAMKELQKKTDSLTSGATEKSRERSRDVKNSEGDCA

Row | SMILES | melting point | response vs control in vivo at 1 mg/kg [1] | IC50 (PDE9)
1 | Cc1cc2[nH]c(=O)c3cnn(C4CCOCC4)c3c2cc1C(=O)N1CCC(OC[C@H](C)F)CC1 [Example 95] | 209 to 210 °C | 166% | 14 nM
2 | Cc1cc2[nH]c(=O)c3cnn(C4CCOCC4)c3c2cc1C(=O)NCC1(N2CCOCC2)CCCCC1.Cl [Example 23] | 281 to 283 °C | 168% | 0.4 nM
3 | CCCOC1CCN(C(=O)c2cc3c(cc2C)[nH]c(=O)c2cnn(C4CCOCC4)c23)CC1 [Example 53] | 216 to 218 °C | 145% | 3.9 nM
4 | Cc1cc2[nH]c(=O)c3cnn(C4CCOCC4)c3c2cc1C(=O)N1CCC(COC2CC2)CC1 [Example 217] | 210 to 211 °C |  | 4.4 nM
5 | O=C(c1ccc2c(c1)[nH]c(=O)c1cnn(C3CCOCC3)c12)N1CCc2cc(Cl)ccc21 [Example 12] | 341 to 343 °C |  | 8.6 nM
6 | Cc1cc2[nH]c(=O)c3cnn(C4CCOCC4)c3c2cc1C(=O)N1CCC(Oc2ccccn2)CC1 [Example 22] | 250 to 253 °C | 142% | 2.2 nM
7 | O=C(c1ccc2c(c1)[nH]c(=O)c1cnn(C3CCCC3)c12)N1CCc2cc(Cl)ccc21 [Example 1, 7-[(5-chloro-2,3-dihydro-1H-indol-1-yl)carbonyl]-1-cyclopentyl-1,5-dihydro-4H-pyrazolo[4,3-c]quinolin-4-one] | 291 to 294 °C |  | 18 nM
8 | Cc1cc2[nH]c(=O)c3cnn(C4CCOCC4)c3c2cc1C(=O)N1CCC(OC[C@@H](C)F)CC1 [Example 177] | 205 to 206 °C |  | 9.7 nM
9 | COCCC1CCN(C(=O)c2cc3c(cc2C)[nH]c(=O)c2cnn(C4CCOCC4)c23)CC1 [Example 66] | 241 to 242 °C |  | 4.3 nM
10 | Cc1cc2[nH]c(=O)c3cnn(C4CCOCC4)c3c2cc1C(=O)N1CCN(CCC(F)(F)F)CC1.Cl [Example 128] | 174 to 176 °C | 136% | 5.2 nM
11 | O=C(c1ccc2c(c1)[nH]c(=O)c1cnn(C3CCOCC3)c12)N1CCOC(c2ccc(F)cc2)C1 (stereo not shown) [Example 14] | 293 to 296 °C |  | 81 nM
12 | Cc1cc2[nH]c(=O)c3cnn(C4CCC4)c3c2cc1C(=O)N1CCN(CC2CCOCC2)CC1 [Example 55] |  | 166% | 15 nM
13 | COCC(F)(F)CN1CCN(C(=O)c2cc3c(cc2C)[nH]c(=O)c2cnn(C4CCOCC4)c23)CC1 [Example 133] | 212 to 213 °C |  | 8.3 nM
14 | CCOCCCCN1CCN(C(=O)c2cc3c(cc2C)[nH]c(=O)c2cnn(C4CCOCC4)c23)C[C@@H]1C [Example 109] |  | 158% | 5.8 nM
15 | Cc1cc2[nH]c(=O)c3cnn(C4CCOCC4)c3c2cc1C(=O)N1CCN(c2ccccn2)CC1 [Example 17] | 272 to 275 °C |  | 2.1 nM
16 | Cc1cc2[nH]c(=O)c3cnn(C4CCOCC4)c3c2cc1C(=O)N1CCN(C)C(c2cccnc2)C1 (stereo not shown) [Example 49] | 255 to 257 °C |  | 3.9 nM
17 | CN1CCN(C(=O)c2ccc3c(c2)[nH]c(=O)c2cnn(C4CCOCC4)c23)CC1c1ccccc1 (stereo not shown) [Example 13] | 183 to 186 °C |  | 85 nM
18 | COCCCCN1CCN(C(=O)c2cc3c(cc2C)[nH]c(=O)c2cnn(CC4CC4)c23)CC1.Cl [Example 103] | 207 to 208 °C |  | 13 nM
19 | CCOCC1CCN(C(=O)c2cc3c(cc2C)[nH]c(=O)c2cnn(C4CCOCC4)c23)CC1 [Example 56] |  | 158% | 4.4 nM
20 | CCOC1CCN(C(=O)c2cc3c(cc2C)[nH]c(=O)c2cnn(C4CCOCC4)c23)CC1 [Example 40] |  | 138% | 8.9 nM
21 | COCCCCN1CCN(C(=O)c2cc3c(cc2C)[nH]c(=O)c2cnn(C4CCOCC4)c23)CC1.Cl [Example 84] | 240 to 242 °C | 154% | 9.3 nM
22 | Cc1cc2[nH]c(=O)c3cnn(C4CCOCC4)c3c2cc1C(=O)N1CCC(OCC2CC2)CC1 [Example 41] | 206 to 208 °C | 159% | 5.7 nM
23 | COCCCCN1CCN(C(=O)c2cc3c(cc2C)[nH]c(=O)c2cnn(C4CCC4)c23)CC1 [Example 79] | 161 to 163 °C | 139% | 23 nM
24 | CCOCCCN1CCN(C(=O)c2cc3c(cc2C)[nH]c(=O)c2cnn(C4CCOCC4)c23)CC1 [Example 63] | 217 to 219 °C |  | 8.4 nM
25 | Cc1cc2[nH]c(=O)c3cnn(C4CCOCC4)c3c2cc1C(=O)N1CCC(OCC(C)(F)F)CC1 [Example 176] | 210 to 211 °C |  | 8.4 nM
